According to PubChem BioAssay (NCI):
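Growth conditions: 96-well plates. Treatment: test compound, 48 hours, 5 concentrations. Analysis: linear interpolation between bracketing concentrations; unreached endpoints set to highest concentration. GI50 marks 50% less growth. TGI: total growth inhibition.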

Experiments:
Experiment in all cases: NCI tumour cell line growth inhibition, 48 h
COLO 205 colon = test system: COLO 205 colon
DLD-1 colon = test system: DLD-1 colon
HS 578T breast = test system: HS 578T breast
KM20L2 colon = test system: KM20L2 colon
M19-MEL melanoma = test system: M19-MEL melanoma
MDA-MB-231 breast = test system: MDA-MB-231 breast
NCI-H460 lung = test system: NCI-H460 lung
RXF 393 renal = test system: RXF 393 renal
SK-MEL-5 melanoma = test system: SK-MEL-5 melanoma
SNB-78 CNS = test system: SNB-78 CNS
SW-620 colon = test system: SW-620 colon
TK-10 renal = test system: TK-10 renal

SMILES: COCC(=O)[C@]1(O)Cc2c(O)c3c(c(O)c2[C@@H](OC2CC(N)C(O)C(C)O2)C1)C(=O)c1c(OC)cccc1C3=O (stereo not given in full)
- TGI (COLO 205 colon): 1.63 µM
- TGI (DLD-1 colon): 5.15 µM
- TGI (HS 578T breast): 0.0892 µM
- TGI (KM20L2 colon): 0.938 µM
- TGI (M19-MEL melanoma): 0.339 µM
- TGI (MDA-MB-231 breast): 2.97 µM
- TGI (NCI-H460 lung): 0.583 µM
- TGI (RXF 393 renal): 0.267 µM
- TGI (SK-MEL-5 melanoma): 0.228 µM
- TGI (SNB-78 CNS): 30.6 µM
- TGI (SW-620 colon): 3.01 µM
- TGI (TK-10 renal): 13.8 µM

SMILES: Cc1cc(=O)c2c(O)c3c(O)cc(O)c4c5c(O)cc(O)c6c(O)c7c(=O)cc(C)c8c1c2c(c34)c(c65)c78
- GI50 (COLO 205 colon): > 100 µM
- TGI (COLO 205 colon): > 100 µM
- TGI (DLD-1 colon): 47.5 µM
- TGI (HS 578T breast): > 100 µM
- TGI (KM20L2 colon): 49.2 µM
- TGI (M19-MEL melanoma): > 63.6 µM
- TGI (MDA-MB-231 breast): > 100 µM
- GI50 (NCI-H460 lung): 33.2 µM
- TGI (NCI-H460 lung): > 100 µM
- TGI (RXF 393 renal): 88.8 µM
- TGI (SK-MEL-5 melanoma): > 100 µM
- TGI (SNB-78 CNS): > 77.3 µM
- TGI (SW-620 colon): > 100 µM
- TGI (TK-10 renal): > 100 µM

SMILES: CC(=O)c1ccc(NC(=O)/C(=N\NC(N)=O)C(C#N)CC(C)(C)C=O)cc1 (stereo not given)
- TGI (COLO 205 colon): > 100 µM
- TGI (DLD-1 colon): > 100 µM
- TGI (KM20L2 colon): > 100 µM
- TGI (M19-MEL melanoma): > 100 µM
- TGI (NCI-H460 lung): > 100 µM
- TGI (RXF 393 renal): > 100 µM
- TGI (SK-MEL-5 melanoma): > 100 µM
- TGI (SNB-78 CNS): > 100 µM
- TGI (SW-620 colon): > 100 µM
- TGI (TK-10 renal): > 100 µM

SMILES: C[C@]12CCC(=O)C=C1CC[C@@H]1[C@@H]2C(=O)C[C@@]2(C)[C@H]1CC[C@]2(O)C(=O)CO
- TGI (COLO 205 colon): > 100 µM
- TGI (DLD-1 colon): > 100 µM
- TGI (KM20L2 colon): > 100 µM
- TGI (M19-MEL melanoma): > 100 µM
- TGI (NCI-H460 lung): > 100 µM
- TGI (RXF 393 renal): > 100 µM
- TGI (SK-MEL-5 melanoma): > 100 µM
- TGI (SW-620 colon): > 100 µM
- TGI (TK-10 renal): > 100 µM

SMILES: COc1ccc(C2C(C(=O)O)=C(COC(C)=O)Oc3cc4c(cc32)OCO4)cc1 (stereo not given)
- TGI (COLO 205 colon): > 100 µM
- TGI (DLD-1 colon): > 100 µM
- TGI (KM20L2 colon): > 100 µM
- TGI (M19-MEL melanoma): > 100 µM
- TGI (NCI-H460 lung): > 100 µM
- TGI (RXF 393 renal): > 100 µM
- TGI (SK-MEL-5 melanoma): > 100 µM
- TGI (SNB-78 CNS): > 100 µM
- TGI (SW-620 colon): > 100 µM
- TGI (TK-10 renal): > 100 µM

SMILES: Cc1ccc(NC(=O)c2cccc([N+](=O)[O-])c2O)c(C)c1
- TGI (COLO 205 colon): > 100 µM
- TGI (DLD-1 colon): > 100 µM
- TGI (KM20L2 colon): > 100 µM
- TGI (M19-MEL melanoma): > 100 µM
- TGI (NCI-H460 lung): > 100 µM
- TGI (SNB-78 CNS): > 100 µM
- TGI (SW-620 colon): > 100 µM

SMILES: C/C=C/C=C/C1=NN(c2cccc(S(=O)(=O)O)c2)C2(C1)SCC(=O)N2c1nc2ccccc2s1 (stereo not given)
- TGI (COLO 205 colon): > 100 µM
- TGI (HS 578T breast): > 100 µM
- TGI (MDA-MB-231 breast): > 100 µM
- TGI (NCI-H460 lung): > 100 µM
- TGI (RXF 393 renal): > 100 µM
- TGI (SK-MEL-5 melanoma): > 100 µM
- TGI (SW-620 colon): > 100 µM
- TGI (TK-10 renal): > 100 µM

SMILES: O=C(c1ccc(Cl)cc1)N(Cc1cccnc1)C(=S)N(Cc1cccnc1)C(=O)c1ccc(Cl)cc1
- TGI (COLO 205 colon): 43.4 µM
- TGI (HS 578T breast): > 100 µM
- TGI (MDA-MB-231 breast): 59.3 µM
- TGI (NCI-H460 lung): > 100 µM
- TGI (RXF 393 renal): > 100 µM
- TGI (SK-MEL-5 melanoma): 90.1 µM
- TGI (SW-620 colon): > 100 µM
- TGI (TK-10 renal): > 100 µM

SMILES: CC[C@@]1(O)C(=O)OCc2c1cc1n(c2=O)Cc2c-1nc1ccccc1c2/C=N\NC(=O)C(N)CS (stereo not given in full)
- TGI (COLO 205 colon): > 100 µM
- TGI (HS 578T breast): > 100 µM
- TGI (MDA-MB-231 breast): > 100 µM
- TGI (NCI-H460 lung): > 43.6 µM
- TGI (RXF 393 renal): 10.2 µM
- TGI (SK-MEL-5 melanoma): 3.9 µM
- TGI (SW-620 colon): > 100 µM
- TGI (TK-10 renal): > 100 µM

SMILES: O=C1c2ccccc2C2(c3ccc(Cl)cc3)NCc3ccccc3CN12 (stereo not given)
- TGI (COLO 205 colon): 28.3 µM
- TGI (HS 578T breast): 56.7 µM
- TGI (MDA-MB-231 breast): > 100 µM
- TGI (NCI-H460 lung): 91.5 µM
- TGI (RXF 393 renal): 29.6 µM
- TGI (SK-MEL-5 melanoma): 29.5 µM
- TGI (SW-620 colon): > 100 µM
- TGI (TK-10 renal): > 100 µM

SMILES: CC(=O)NC1C(OCc2ccccc2)OC(CO)C(O)C1OCC(=O)NC(C)C(=O)NC(CCC(=O)NCCCCCC(=O)Nc1ccc2c(c1)CN1C(=O)c3ccccc3C1=N2)C(N)=O (stereo not given)
- TGI (COLO 205 colon): > 100 µM
- TGI (HS 578T breast): > 100 µM
- TGI (MDA-MB-231 breast): > 100 µM
- TGI (NCI-H460 lung): > 100 µM
- TGI (RXF 393 renal): > 100 µM
- TGI (SK-MEL-5 melanoma): > 100 µM
- TGI (SW-620 colon): > 100 µM
- TGI (TK-10 renal): > 100 µM

SMILES: COc1ccc2[nH]c(C(=O)N3CC(CCl)c4ccc([N+](=O)[O-])cc43)cc2c1 (stereo not given)
- TGI (COLO 205 colon): > 100 µM
- TGI (HS 578T breast): > 100 µM
- TGI (MDA-MB-231 breast): > 100 µM
- TGI (NCI-H460 lung): > 100 µM
- TGI (RXF 393 renal): > 100 µM
- TGI (SK-MEL-5 melanoma): > 100 µM
- TGI (SW-620 colon): > 100 µM
- TGI (TK-10 renal): > 100 µM

SMILES: CN(N)C(=O)NCCCl
- TGI (COLO 205 colon): > 100 µM
- TGI (HS 578T breast): > 100 µM
- TGI (MDA-MB-231 breast): > 100 µM
- TGI (NCI-H460 lung): > 100 µM
- TGI (RXF 393 renal): > 100 µM
- TGI (SK-MEL-5 melanoma): > 100 µM
- TGI (SW-620 colon): > 100 µM
- TGI (TK-10 renal): > 100 µM

SMILES: Cc1ccc(S(=O)(=O)n2cc(-c3cnc(N)c(Br)n3)c3ccccc32)cc1
- TGI (COLO 205 colon): 10 µM
- TGI (HS 578T breast): 2.97 µM
- TGI (MDA-MB-231 breast): > 24 µM
- TGI (NCI-H460 lung): > 100 µM
- TGI (RXF 393 renal): 5.23 µM
- TGI (SK-MEL-5 melanoma): 41.4 µM
- TGI (SW-620 colon): > 100 µM
- TGI (TK-10 renal): > 100 µM

SMILES: O=C(CCc1cc(O)cc(O)c1)NCCc1ccc(O)c(O)c1
- TGI (COLO 205 colon): > 100 µM
- TGI (HS 578T breast): > 100 µM
- TGI (MDA-MB-231 breast): > 100 µM
- TGI (NCI-H460 lung): > 100 µM
- TGI (RXF 393 renal): > 100 µM
- TGI (SK-MEL-5 melanoma): > 100 µM
- TGI (SW-620 colon): > 100 µM
- TGI (TK-10 renal): > 100 µM

SMILES: O=C1C=CC2(O[C@@H](Cc3ccccc3)[C@H](Cc3ccccc3)O2)C(SC(=O)c2ccccc2)C1 (stereo not given in full)
- TGI (COLO 205 colon): 3.14 µM
- TGI (HS 578T breast): 4.57 µM
- TGI (MDA-MB-231 breast): 6.39 µM
- TGI (NCI-H460 lung): 9.56 µM
- TGI (RXF 393 renal): 0.325 µM
- TGI (SK-MEL-5 melanoma): 3.16 µM
- TGI (SW-620 colon): 0.858 µM
- TGI (TK-10 renal): 4.09 µM

SMILES: CC(O)(c1ccccc1)c1nccc2ccccc12 (stereo not given)
- TGI (COLO 205 colon): > 100 µM
- TGI (HS 578T breast): > 100 µM
- TGI (MDA-MB-231 breast): > 100 µM
- TGI (NCI-H460 lung): > 100 µM
- TGI (RXF 393 renal): > 100 µM
- TGI (SK-MEL-5 melanoma): > 100 µM
- TGI (SW-620 colon): > 100 µM
- TGI (TK-10 renal): > 100 µM
